{
  "source": "paper PMC6979384",
  "about": "“Characterization of the plant homeodomain (PHD) reader family for their histone tail interactions” (Epigenetics & Chromatin, 2020)",
  "test_in_all_cases": "Histone peptide microarray",
  "assay_type_in_all_cases": "binding, human",
  "key": {"TRIM66 (PB)": {"system": "TRIM66 (PB)", "conditions": "sheet \"Array Heatmap\"; GST-tagged TRIM66 (PB); arrays performed twice, total replicate number n = 4", "summary_of_the_method": "(§1)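 Purified PHD finger domains fused to GST are screened against 293 synthetic histone peptides bearing one or several post-translational modifications. The protein is used at 0.5 μM, and the signal from four replicate arrays is averaged, with standard deviation given.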"}, "RAG2": {"system": "RAG2", "conditions": "sheet \"Array Heatmap\"; GST-tagged RAG2; arrays performed twice, total replicate number n = 4", "summary_of_the_method": "as §1"}, "ING4": {"system": "ING4", "conditions": "sheet \"Array Heatmap\"; GST-tagged ING4; arrays performed twice, total replicate number n = 4", "summary_of_the_method": "as §1"}, "SP140L": {"system": "SP140L", "conditions": "sheet \"Array Heatmap\"; GST-tagged SP140L; arrays performed twice, total replicate number n = 4", "summary_of_the_method": "as §1"}, "CHD5 (PCC)": {"system": "CHD5 (PCC)", "conditions": "sheet \"Array Heatmap\"; GST-tagged CHD5 (PCC); arrays performed twice, total replicate number n = 4", "summary_of_the_method": "as §1"}, "MLL5": {"system": "MLL5", "conditions": "sheet \"Array Heatmap\"; GST-tagged MLL5; arrays performed twice, total replicate number n = 4", "summary_of_the_method": "as §1"}, "BAZ2B": {"system": "BAZ2B", "conditions": "sheet \"Array Heatmap\"; GST-tagged BAZ2B; arrays performed twice, total replicate number n = 4", "summary_of_the_method": "as §1"}, "KDM5B (1)": {"system": "KDM5B (1)", "conditions": "sheet \"Array Heatmap\"; GST-tagged KDM5B (1); arrays performed twice, total replicate number n = 4", "summary_of_the_method": "as §1"}, "KDM5B (3)": {"system": "KDM5B (3)", "conditions": "sheet \"Array Heatmap\"; GST-tagged KDM5B (3); arrays performed twice, total replicate number n = 4", "summary_of_the_method": "as §1"}, "KDM5A (1)": {"system": "KDM5A (1)", "conditions": "sheet \"Array Heatmap\"; GST-tagged KDM5A (1); arrays performed twice, total replicate number n = 4", "summary_of_the_method": "as §1"}, "ING2": {"system": "ING2", "conditions": "sheet \"Array Heatmap\"; GST-tagged ING2; arrays performed twice, total replicate number n = 4", "summary_of_the_method": "as §1"}, "DPF2 (PPC2W2)": {"system": "DPF2 (PPC2W2)", "conditions": "sheet \"Array Heatmap\"; GST-tagged DPF2 (PPC2W2); arrays performed twice, total replicate number n = 4", "summary_of_the_method": "as §1"}, "PHF2": {"system": "PHF2", "conditions": "sheet \"Array Heatmap\"; GST-tagged PHF2; arrays performed twice, total replicate number n = 4", "summary_of_the_method": "as §1"}, "ING3": {"system": "ING3", "conditions": "sheet \"Array Heatmap\"; GST-tagged ING3; arrays performed twice, total replicate number n = 4", "summary_of_the_method": "as §1"}, "ING5": {"system": "ING5", "conditions": "sheet \"Array Heatmap\"; GST-tagged ING5; arrays performed twice, total replicate number n = 4", "summary_of_the_method": "as §1"}, "PHF13": {"system": "PHF13", "conditions": "sheet \"Array Heatmap\"; GST-tagged PHF13; arrays performed twice, total replicate number n = 4", "summary_of_the_method": "as §1"}, "CHD5 (PPCC)": {"system": "CHD5 (PPCC)", "conditions": "sheet \"Array Heatmap\"; GST-tagged CHD5 (PPCC); arrays performed twice, total replicate number n = 4", "summary_of_the_method": "as §1"}, "AIRE (PP)": {"system": "AIRE (PP)", "conditions": "sheet \"Array Heatmap\"; GST-tagged AIRE (PP); arrays performed twice, total replicate number n = 4", "summary_of_the_method": "as §1"}, "TAF3": {"system": "TAF3", "conditions": "sheet \"Array Heatmap\"; GST-tagged TAF3; arrays performed twice, total replicate number n = 4", "summary_of_the_method": "as §1"}, "KDM5A (3)": {"system": "KDM5A (3)", "conditions": "sheet \"Array Heatmap\"; GST-tagged KDM5A (3); arrays performed twice, total replicate number n = 4", "summary_of_the_method": "as §1"}, "PHF8": {"system": "PHF8", "conditions": "sheet \"Array Heatmap\"; GST-tagged PHF8; arrays performed twice, total replicate number n = 4", "summary_of_the_method": "as §1"}, "KDM4C (TTP)": {"system": "KDM4C (TTP)", "conditions": "sheet \"Array Heatmap\"; GST-tagged KDM4C (TTP); arrays performed twice, total replicate number n = 4", "summary_of_the_method": "as §1"}, "KDM7A": {"system": "KDM7A", "conditions": "sheet \"Array Heatmap\"; GST-tagged KDM7A; arrays performed twice, total replicate number n = 4", "summary_of_the_method": "as §1"}, "PHRF1 (RP)": {"system": "PHRF1 (RP)", "conditions": "sheet \"Array Heatmap\"; GST-tagged PHRF1 (RP); arrays performed twice, total replicate number n = 4", "summary_of_the_method": "as §1"}, "MORC3 (CW)": {"system": "MORC3 (CW)", "conditions": "sheet \"Array Heatmap\"; GST-tagged MORC3 (CW); arrays performed twice, total replicate number n = 4", "summary_of_the_method": "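GST-tagged PHD finger readers were expressed, purified and applied at 0.5 μM to a microarray of 293 synthetic histone peptides carrying single or combinatorial PTMs, using an optimized protocol. Binding signals are averages with standard deviation from 4 replicates.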"}, "BPTF (PB)": {"system": "BPTF (PB)", "conditions": "sheet \"Array Heatmap\"; GST-tagged BPTF (PB); arrays performed twice, total replicate number n = 4", "summary_of_the_method": "as §1"}, "PHF23": {"system": "PHF23", "conditions": "sheet \"Array Heatmap\"; GST-tagged PHF23; arrays performed twice, total replicate number n = 4", "summary_of_the_method": "as §1"}, "PHF21A": {"system": "PHF21A", "conditions": "sheet \"Array Heatmap\"; GST-tagged PHF21A; arrays performed twice, total replicate number n = 4", "summary_of_the_method": "as §1"}, "ING1": {"system": "ING1", "conditions": "sheet \"Array Heatmap\"; GST-tagged ING1; arrays performed twice, total replicate number n = 4", "summary_of_the_method": "as §1"}, "DIDO1": {"system": "DIDO1", "conditions": "sheet \"Array Heatmap\"; GST-tagged DIDO1; arrays performed twice, total replicate number n = 4", "summary_of_the_method": "as §1"}, "CHD4 (PPCC)": {"system": "CHD4 (PPCC)", "conditions": "sheet \"Array Heatmap\"; GST-tagged CHD4 (PPCC); arrays performed twice, total replicate number n = 4", "summary_of_the_method": "as §1"}},
  "data": [
    {"substance": "H3K23me1 15-34: H3 15-34", "values": [
      {"measurement": "Array Heatmap signal, TRIM66 (PB)", "setting": "TRIM66 (PB)", "value": 0.5248},
      {"measurement": "Array Heatmap signal, RAG2", "setting": "RAG2", "value": 0.2067},
      {"measurement": "Array Heatmap signal, ING4", "setting": "ING4", "value": 0.3978},
      {"measurement": "Array Heatmap signal, SP140L", "setting": "SP140L", "value": 0.3205},
      {"measurement": "Array Heatmap signal, CHD5 (PCC)", "setting": "CHD5 (PCC)", "value": 0.7691},
      {"measurement": "Array Heatmap signal, MLL5", "setting": "MLL5", "value": 0.5166},
      {"measurement": "Array Heatmap signal, BAZ2B", "setting": "BAZ2B", "value": 0.4158},
      {"measurement": "Array Heatmap signal, KDM5B (1)", "setting": "KDM5B (1)", "value": 0.6704},
      {"measurement": "Array Heatmap signal, KDM5B (3)", "setting": "KDM5B (3)", "value": 0.4273},
      {"measurement": "Array Heatmap signal, KDM5A (1)", "setting": "KDM5A (1)", "value": 0.4342},
      {"measurement": "Array Heatmap signal, ING2", "setting": "ING2", "value": 0.5717},
      {"measurement": "Array Heatmap signal, DPF2 (PPC2W2)", "setting": "DPF2 (PPC2W2)", "value": 0.6371},
      {"measurement": "Array Heatmap signal, PHF2", "setting": "PHF2", "value": 0.3956},
      {"measurement": "Array Heatmap signal, ING3", "setting": "ING3", "value": 0.3997},
      {"measurement": "Array Heatmap signal, ING5", "setting": "ING5", "value": 0.3097},
      {"measurement": "Array Heatmap signal, PHF13", "setting": "PHF13", "value": 0.5337},
      {"measurement": "Array Heatmap signal, CHD5 (PPCC)", "setting": "CHD5 (PPCC)", "value": 0.4785},
      {"measurement": "Array Heatmap signal, AIRE (PP)", "setting": "AIRE (PP)", "value": 0.4449},
      {"measurement": "Array Heatmap signal, TAF3", "setting": "TAF3", "value": 0.2405},
      {"measurement": "Array Heatmap signal, KDM5A (3)", "setting": "KDM5A (3)", "value": 0.3565},
      {"measurement": "Array Heatmap signal, PHF8", "setting": "PHF8", "value": 0.3239},
      {"measurement": "Array Heatmap signal, KDM4C (TTP)", "setting": "KDM4C (TTP)", "value": 0.4583},
      {"measurement": "Array Heatmap signal, KDM7A", "setting": "KDM7A", "value": 0.3872},
      {"measurement": "Array Heatmap signal, PHRF1 (RP)", "setting": "PHRF1 (RP)", "value": 0.3534},
      {"measurement": "Array Heatmap signal, MORC3 (CW)", "setting": "MORC3 (CW)", "value": 0.2751},
      {"measurement": "Array Heatmap signal, BPTF (PB)", "setting": "BPTF (PB)", "value": 0.3041},
      {"measurement": "Array Heatmap signal, PHF23", "setting": "PHF23", "value": 0.4553},
      {"measurement": "Array Heatmap signal, PHF21A", "setting": "PHF21A", "value": 0.4373},
      {"measurement": "Array Heatmap signal, ING1", "setting": "ING1", "value": 0.468},
      {"measurement": "Array Heatmap signal, DIDO1", "setting": "DIDO1", "value": 0.5926},
      {"measurement": "Array Heatmap signal, CHD4 (PPCC)", "setting": "CHD4 (PPCC)", "value": 0.5163}
    ]}
  ]
}
